From EP0072027A1, “Antiviral compounds” (THE WELLCOME FOUNDATION LIMITED, priority 1981, dated 1983)
Values after ≈ are worked out from the molar mass of the structure shown.

Tests used:
[1] = test system: EHV-1 Pneumabort vaccine strain; experiment: Comparative in vivo activity against equine rhinopneumonitis virus in hamsters, medicated drinking water (Example 15); design: species or system Syrian hamsters; details: for Cumulative mortality (out of 15) on day: water conc. 0.075 mg/ml, average intake 6.6-6.8 mg/kg/day
Description: 50 male WO/CR Syrian hamsters were caged randomly in 10 groups of 5, with water and food (seed mix) ad lib. Hamsters were weighed on Days -3, 0, 4, and/or- at death/sacrifice. Water consumption was recorded over Days -3 to 0 to 4.
EHV-1 Pneumabort vaccine strain stored as a 10^-1 dilution, was further diluted 10^-1 in PBS for infection. On Day 0, hamsters in Groups 1-9 received 0.2 ml virus inoculum s/c in the left flank equivalent to about 2 x 10^5 PFU (plaque-forming units).
457U and 759U were dissolved in drinking water at 0.075 mg/ml. Assuming an average daily intake of […], this would result in a daily dose of around 10 mg/kg. Medicated water was provided from approximately 5 hours pre-infection for 96 hours, as below
The drug intake was calculated from the weight of the animals and the water consumption recorded over the period of the experiment.

herpes virus = experiment: In vivo activity against herpetic encephalitis, intracerebrally infected mice (Example 17); details: for Mean reciprocal survival time: 100 mg/kg oral twice daily for 5 days, around 300 x LD50 intracerebrally, 14 days observation
Description: Swiss mice weighing 12-15 g were anaesthetised with ether and inoculated intracerebrally with 0.025 ml of a tissue culture preparation of type herpes virus. The mice were examined daily for sign of herpes encephalitis i.e. cerebral irritation leading to paralysis, coma and death. […] The viscera of the mice were examined for signs of infection with bacteria or other agents and if no abnormalities were found the brains were removed asceptically and ground to a smooth paste. The homogenate was resuspended in 4 ml of tissue culture maintenance medium to each brain, and mixed with glycerol in the ratio 2:1. Mouse brains weigh approximately 400 mg and the preparation thus represented a dilution of 10^-1.
The stocks of virus thus prepared were titrated in mice to determine the LD50 titre by inoculating mice intracerebrally with 10-fold dilutions of the stock preparation of virus and subsquently examined twice daily for signs of infection. The LD50 titre was calculated by the Karber method.
Groups of 5 mice were infected intracerebrally with stock virus diluted to give a dose of around 300 x LD50. The compound under test was administered twice daily as a suspension by the oral route at a dose of 100 mg/kg. The animals were examined twice daily and survival times were recorded to the nearst half-day. Dosing was carried out for 5 days and the total period of observation was 14 days. Survival times were converted to recipocals and the mean survival time was determined for each group L. Bauer, D. J., Brit. J. Exp. Path., 1960, 41, 130).

Solubility in water = assay type: physicochemical
Excerpt: As mentioned above, the compounds of formula (I) have the important advantage of having a greater solubility in water than acyclovir. Thus, the compounds of formula (I) wherein X is an oxygen atom and R is a hydroxy group or amino group have solubilities of 0.4 -.0.5% and 2 - 3% w/w respectively compared with a figure of 0.14% w/w for acyclovir.

[2] = test system: Equine rhinopneumonitis virus (EHV-1); experiment: In vivo activity against equine rhinopneumonitis virus in hamsters (Example 14), intraperitoneal and oral; design: species or system Syrian weanling hamsters; details: Equid alphaherpesvirus 1, ip, 120 h; intraperitoneally for 5 days commencing 5 hours pre-infection; read-out: dose rate generally necessary to prevent any virus-induced mortality

**Q.** With Nc1nc2c(ncn2COC(CO)CO)c(=O)[nH]1 [Example 759U, 9-[(2-hydroxy-1-hydroxymethylethoxy)methyl]guanine] as the compound, how does the “deaths from virus-induced hepatitis” value ([1]; in 15 treated hamsters, 14 deaths in 15 untreated controls) read?
**A.** no deaths

**Q.** And the “prevention of EHV-1 induced mortality” value ([1]; orally in drinking water, approximately 7 mg/kg/day)?
**A.** completely prevented

**Q.** And the “Cumulative mortality (out of 15) on day” value ([1]; day 2)?
**A.** 0

**Q.** And the “Cumulative mortality (out of 15) on day” value ([1]; day 3)?
**A.** 0

**Q.** And the “Cumulative mortality (out of 15) on day” value ([1]; day 4+)?
**A.** 0

**Q.** And the “Mean reciprocal survival time” value (herpes virus)?
**A.** 0.15

**Q.** What about the “activity given orally to intracerebrally infected mice compared with acyclovir” value (herpes virus; same conditions) of the same compound?
**A.** much greater than acyclovir

**Q.** With Nc1nc2c(ncn2COCCO)c(=O)[nH]1 [acyclovir, 9-(2-hydroxyethoxymethyl) guanine, reference compound] as the compound, how does the solubility (Solubility in water) read?
**A.** 1400 µg/mL (≈ 6.22 mM)

**Q.** What about the “Mean reciprocal survival time” value (herpes virus) of the same compound?
**A.** 0.26

**Q.** What about the minimal effective dose [2] of the same compound?
**A.** 100 mg/kg/day
